Entries after “also recorded” stand apart in the source; their conditions may differ.
Legend:
[1] = test system: HeLa cells; test: Clonal (colony) formation assay; format: cell-based, human; details: HeLa cells
Description: (§1) For cell growth curve assay, HeLa cells (10, 000/well) in 12-well plate were transfected with individual TF-PROTAC, then the cells were trypsined and the cell number were counted at indicated time. For the clonal formation assay, HeLa cells were transfected with individual TF-PROTAC for 12 hours, followed by further plated into 6-well plate (1,000/well). Three weeks later, the cells were fixed in fixation buffer (acetic acid: methanol=1:7) and stained with 0.4% crystal violet in 20% ethanol. Then clonal number were quantified by Image J software. As various changes can be made in the above-described subject matter without departing from the scope and spirit of the present disclsoure, it is intended that all subject matter contained in the above description, or defined in the appended claims, be interpreted as descriptive and illustrative. Many modifications and variations of the present disclosure are possible in light of the above teachings. Accordingly, the present description is intended to embrace all such alternatives, modifications and variances which fall within the scope of the appended claims.

[2] = biological target: T1, p65 (Homo sapiens, UniProt Q04206); test: Streptavidin-biotin pulldown / competition assay of NF-κB-ODN with Flag-p65; format: binding; details: excess competitor
Description: To determine whether NF-κB-ODN binds with NF-κB properly, we also synthesized a biotin-modified version of NF-κB-ODN (hereafter termed as Biotin-NF-κB-ODN, FIGS. 3A-3C).
HEK293T cells that ectopically expressed either Flag-p65 or HAE2F1 were lysed by EBC buffer (50 mM Tris pH 7.5, 120 mM NaCl, 0.5% NP-40) supplemented with protease inhibitors (Pierce) and phosphatase inhibitors (phosphatase inhibitor cocktail set I and II, Calbiochem). The protein concentrations of the lysates were measured using the Bio-Rad protein assay reagent on a Beckman Coulter DU-800 spectrophotometer. The cell lysates (1 mg) were further incubated with biotin-ODN at 4 °C for 3 hours, followed by adding 10 μL of Streptavidin agarose beads (Thermo Fisher) for another 1 hour. The beads were washed 4 times with NETN buffer (100 mM NaCl, 20 mM Tris-Cl, pH 8.0, 0.5 mM EDTA, 0.5% NP-40), boiled in SDS loading buffer and further separated by 10% SDS-PAGE and blotted with individual antibody.
Target sequence in this assay (Q04206 whole entry): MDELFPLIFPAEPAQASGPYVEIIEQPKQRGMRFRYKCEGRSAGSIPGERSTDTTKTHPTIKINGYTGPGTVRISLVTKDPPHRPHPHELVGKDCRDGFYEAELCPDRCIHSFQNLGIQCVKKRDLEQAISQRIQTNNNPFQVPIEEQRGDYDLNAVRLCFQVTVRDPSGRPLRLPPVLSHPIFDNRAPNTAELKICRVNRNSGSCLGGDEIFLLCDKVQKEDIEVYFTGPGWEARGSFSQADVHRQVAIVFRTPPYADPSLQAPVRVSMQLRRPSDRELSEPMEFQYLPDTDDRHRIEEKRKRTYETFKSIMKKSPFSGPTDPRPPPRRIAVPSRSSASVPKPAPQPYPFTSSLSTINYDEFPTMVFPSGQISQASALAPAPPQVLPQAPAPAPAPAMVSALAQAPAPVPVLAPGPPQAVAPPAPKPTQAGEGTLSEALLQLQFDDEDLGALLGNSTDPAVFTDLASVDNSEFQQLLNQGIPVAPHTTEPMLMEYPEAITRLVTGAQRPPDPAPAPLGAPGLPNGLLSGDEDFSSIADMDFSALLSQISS

[3] = biological target: T2, VHL E3 ubiquitin ligase and E2F1 transcription factor (Homo sapiens, UniProt P40337+Q01094+Q14186); test: GST pulldown assay of VHL E3 ligase complex and E2F1 with TF-PROTAC; format: binding; details: in vitro pulldown
T2 construct: made in house; host or cells: E. coli BL21(DE3) for the GST-VHL/Elongin B/C complex; HEK293T lysate for the transfected transcription factor
Description: (§2) pGEX-GST-VHL/ElonginB construct was kindly gift from Dr. William Kaelin, Jr. at Dana-Farber Cancer Institute, Harvard Medical School. pGEX-GST-Elongin C plasmid was generated by subcloning Elongin C CDS into the BamHI and Xhol sites of pGEX-4T1-GST vector. The GST-VHL/ElonginB/C complex was purified as described 43. Briefly, BL21(DE3) E. coli was cotransfected with pGEX-GST-VHL/ElonginB and pGEX-GSTElonginC plasmid. Protein expression was induced by 100 μM isopropyl beta-D-thiogalactopyranoside (IPTG, Fisher Scientific) at 18° C.overnight. Then, the bacterial culture was centrifuged and sonicated in PBS buffer with protease inhibitor cocktail. Protein lysates were further purified with glutathione-Sepharose beads (GE17-0756-05) and washed with PBS for 5 times.
(§3) Glutathione-Sepharose beads loaded with GST-VHL E3 ligase complex were incubated at 4° C. with cell lysate derived from HEK293T cells that ectopic transfected with individual transfection factor. After incubation for 3 hours, TF-PROTACs were added into the mixture for another 2 hours, followed by wash with NETN buffer for 3 times. The pulldown products were further separated by 10% SDS-PAGE and blotted for indicated proteins.

[4] = biological target: T3, VHL E3-PROTAC-p65 ternary complex (Homo sapiens, UniProt P40337+Q04206); test: GST pulldown assay of VHL E3 ligase complex and p65 with TF-PROTAC; format: binding; details: GST-VHL complex from E. coli, HEK293T lysate with Flag-p65, in vitro
T3 construct: made in house; host or cells: E. coli BL21(DE3) for the GST-VHL/Elongin B/C complex; HEK293T lysate for Flag-p65
Text: Furthermore, dNF-κB is capable of recruiting VHL E3 ubiquitin ligase to POI, NF-κB. […] However, dNF-κB obtained in current stage could not efficiently promote the degradation of p65 in cells, which prompted further optimization of the length of linker between the VHL ligand and DNA oligomer moieties for achieving efficient destruction of NF-κB in cells.
as §2, §3

[5] = biological target: T4, p65 (Homo sapiens, UniProt P19838+Q04206); test: Western blot of p65 in HeLa cells transfected with TF-PROTAC; format: cell-based; details: 12 hours, dNF-κB #1-#18 compared
T4 construct: endogenous in cells; host or cells: HeLa
Description: (§4) Human embryonic kidney 293T (HEK293T) and HeLa cells were maintained in Dulbecco's Modified Eagle's Medium (DMEM) containing 10% fetal bovine serum (FBS), 100 Units/mL of penicillin and 100 μg/mL streptomycin. For ectopic expression of transcription factors, Flag-p65 and HA-E2F1 were transfected into HEK293T cells and harvested for lysis 48 hours after transfection. For TF-PROTACs treatment, HeLa cells in 12-well plate were transfected with individual TF-PROTAC for 12 hours, followed by harvest for western blot analysis. […] For depletion of endogenous VHL E3 ligase, two sgRNA for VHL E3 ligase were synthesized and inserted into lenti-CRISPR-V2 construct 40. The sgVHL lentivirus were generated in HEK293T cells as previously described 41-42 for infection of HeLa cells overnight, followed by selection with puromycin for 72 h.
Cells were lysed in EBC buffer supplemented with protease inhibitors cocktail and phosphatase inhibitors, and the protein concentrations were measured as described above. The lysates (40 ug protein) were then resolved by 10% SDS-PAGE at 130 V for 80 min and immunoblotted with indicated antibodies at 4° C. overnight, washed 4 times with Tris-buffered saline with 0.1% Tween-20 (TBST), incubated with secondary antibody for 1 hour at room temperature, and then washed 4 times with TBST buffer. Anti-p65 (#8742, 1:1,000) and E2F1 (#3742, 1:500) antibodies were purchased from Cell Signaling Technologies. Anti-HA antibody (#901513, 1:1,000) was purchased from Biolegend. Anti-Flag (F3165, 1:5,000), anti-vinculin antibody (V-4505, 1:50,000), peroxidase-conjugated anti-mouse secondary antibody (A-4416, 1:3,000) and peroxidase-conjugated anti-rabbit secondary antibody (A-4914, 1:3,000) were purchased from Sigma. All primary antibodies were diluted in 5% bovine serum albumin (BSA) in TBST buffer, and secondary antibodies were diluted in 5% non-fat milk in TBST buffer.

[6] = biological target: T1, p65; test: In vivo ubiquitination assay of p65 (Ni-NTA pulldown); format: cell-based; details: HEK293T cells, Flag-p65 24 hours, then dNF-κB 12 hours
Description: Denatured in vivo ubiquitination assays were performed as previously described 41. Briefly, HEK293T cells were firstly transfected with Flag-p65 or HA-E2F1 for 24 hours, followed by additional transfection of individual TF-PROTAC for another 12 hours. Before been harvested, HEK293T cells were treated with 30 μM of MG132 for 4 hours. After having been harvested in denatured buffer A (6 M guanidine-HCI, pH 8.0, 0.1 M Na2HPO4/NaH2PO4, and 10 mM imidazole) and sonication for 10 seconds, cell lysis was incubation with Ni-nitrilotriacetic acid (NTA) matrices under rotation for 3 hours at room temperature. The pulldown products were washed sequentially twice in buffer A, twice in buffer A/TI mixture (buffer A, buffer TI=1:3, v/v), and once in buffer TI (25 mM tris-HCl, pH 6.8, and 20 mM imidazole). The ubiquitinated proteins were finally separated by 7% SDS-PAGE and blotted with individual antibody.
Target sequence in this assay (Q04206 whole entry): as above

[7] = biological target: T1, p65; test: Western blot of p65 in HeLa cells transfected with TF-PROTAC; format: cell-based; parameters: endogenous in cells; host or cells: HeLa; details: 10 uM MG132
Description: as §4
Target sequence in this assay (Q04206 whole entry): as above
Target sequence in this assay (P19838 1-433 limits assumed, further chain): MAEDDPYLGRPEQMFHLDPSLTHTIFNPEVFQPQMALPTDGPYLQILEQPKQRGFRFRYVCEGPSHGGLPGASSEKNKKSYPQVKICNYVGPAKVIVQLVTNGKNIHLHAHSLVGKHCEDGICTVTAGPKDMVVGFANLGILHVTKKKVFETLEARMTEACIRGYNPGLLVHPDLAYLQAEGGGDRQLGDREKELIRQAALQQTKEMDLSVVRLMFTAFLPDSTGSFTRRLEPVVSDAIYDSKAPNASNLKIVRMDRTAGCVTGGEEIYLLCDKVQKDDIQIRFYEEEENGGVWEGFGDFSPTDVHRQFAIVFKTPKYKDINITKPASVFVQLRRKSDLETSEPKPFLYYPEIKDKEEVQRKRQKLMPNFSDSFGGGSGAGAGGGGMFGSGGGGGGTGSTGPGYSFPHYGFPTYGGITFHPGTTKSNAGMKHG
Cells were lysed in EBC buffer supplemented with protease inhibitors cocktail and phosphatase inhibitors, and the protein concentrations were measured as described above. The lysates (40 ug protein) were then resolved by 10% SDS-PAGE at 130 V for 80 min and immunoblotted with indicated antibodies at 4° C. overnight, washed 4 times with Tris-buffered saline with 0.1% Tween-20 (TBST), incubated with secondary antibody for 1 hour at room temperature, and then washed 4 times with TBST buffer. […]

[8] = test system: HeLa cells; test: Cell growth curve assay (cell number); format: cell-based, human; details: 10 ug/mL
Description: as §1

T3 sequence (P40337 whole entry): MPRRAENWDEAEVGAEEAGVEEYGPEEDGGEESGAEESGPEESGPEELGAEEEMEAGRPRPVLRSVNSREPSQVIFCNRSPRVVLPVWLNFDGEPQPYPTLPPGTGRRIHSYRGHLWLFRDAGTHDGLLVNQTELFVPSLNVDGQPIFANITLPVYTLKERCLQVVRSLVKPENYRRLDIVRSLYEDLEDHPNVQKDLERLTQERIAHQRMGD
T3 sequence (Q15370 whole entry partner): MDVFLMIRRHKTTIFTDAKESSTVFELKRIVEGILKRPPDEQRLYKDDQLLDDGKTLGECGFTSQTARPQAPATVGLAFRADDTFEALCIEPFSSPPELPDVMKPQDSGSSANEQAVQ
T3 sequence (Q15369 whole entry partner): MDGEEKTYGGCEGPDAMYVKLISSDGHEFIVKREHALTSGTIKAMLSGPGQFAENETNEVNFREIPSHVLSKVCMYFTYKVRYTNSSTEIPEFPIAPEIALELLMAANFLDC
T3 sequence (Q04206 whole entry): as the sequence (Q04206 whole entry) above
T4 sequence (Q04206 whole entry): as above
T4 sequence (P19838 1-433 limits assumed): as the sequence (P19838 1-433 limits assumed, further chain) above
T2 sequence (P40337 whole entry): as the sequence (P40337 whole entry) above
T2 sequence (Q15370 whole entry partner): as the sequence (Q15370 whole entry partner) above
T2 sequence (Q15369 whole entry partner): as the sequence (Q15369 whole entry partner) above
T2 sequence (Q01094 whole entry): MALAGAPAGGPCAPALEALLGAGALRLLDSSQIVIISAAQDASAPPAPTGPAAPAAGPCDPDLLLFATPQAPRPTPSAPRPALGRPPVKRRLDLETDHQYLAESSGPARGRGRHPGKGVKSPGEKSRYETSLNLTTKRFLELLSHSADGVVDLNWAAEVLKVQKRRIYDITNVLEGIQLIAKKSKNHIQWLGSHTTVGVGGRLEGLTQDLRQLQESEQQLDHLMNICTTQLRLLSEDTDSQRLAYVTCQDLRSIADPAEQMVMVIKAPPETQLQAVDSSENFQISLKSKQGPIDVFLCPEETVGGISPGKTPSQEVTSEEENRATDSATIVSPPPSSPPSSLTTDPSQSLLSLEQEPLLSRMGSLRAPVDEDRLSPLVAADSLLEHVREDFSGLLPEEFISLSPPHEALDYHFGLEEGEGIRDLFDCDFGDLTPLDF
T2 sequence (Q14186 whole entry): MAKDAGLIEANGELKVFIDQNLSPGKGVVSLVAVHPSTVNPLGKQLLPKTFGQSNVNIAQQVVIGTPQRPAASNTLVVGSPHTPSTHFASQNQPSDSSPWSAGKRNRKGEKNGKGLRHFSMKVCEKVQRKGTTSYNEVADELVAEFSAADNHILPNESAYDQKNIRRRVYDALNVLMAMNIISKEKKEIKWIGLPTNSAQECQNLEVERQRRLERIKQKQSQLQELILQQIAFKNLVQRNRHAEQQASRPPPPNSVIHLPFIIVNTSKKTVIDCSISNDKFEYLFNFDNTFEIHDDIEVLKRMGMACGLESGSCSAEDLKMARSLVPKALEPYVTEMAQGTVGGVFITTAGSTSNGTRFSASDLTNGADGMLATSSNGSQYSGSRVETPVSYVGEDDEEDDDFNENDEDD

| Substance | competition with Biotin-NF-κB-ODN for binding to p65 [2] | VHL E3 ligase-p65 binding (ternary complex) induced by PROTAC [4] | p65 signal / degradation efficiency in western blot [5] | ubiquitination of p65 in cells [6] | other results |
| --- | --- | --- | --- | --- | --- |
| 5′-TGGGGACTTTCCAGTTTCTGGAAAGTCCCCA-3′ (chemistry not given here) [NF-κB-ODN, reference compound] | competed with Biotin-NF-κB-ODN for the binding with p65 | – | – | – | tumorigenesis ability (colony formation) [1]: not |
| N3-NF-κB-ODN: azide modification version of NF-κB-ODN, azide group on the 5′ end through the 5′ amino modifier C6 (TGGGGACTTTCCAGTTTCTGGAAAGTCCCCA; chemistry not fully specified) [Compound N3-NF-κB-ODN] | competed with Biotin-NF-κB-ODN for the binding with p65 | – | – | – | – |
| dE2F #15 (chain 1 CTAGATTTCCCGCG; chain 2 CTAGCGCGGGAAAT; DNA, backbone and methylation of C not given here; further chemistry not fully specified) | – | – | – | – | binding between VHL E3 ubiquitin ligase and E2F1 recruited by PROTAC [3]: recruited the binding between the VHL E3 ubiquitin ligase and E2F1 transcription factor in vitro |
| dNF-κB #1 (TGGGGACTTTCCAGTTTCTGGAAAGTCCCCA; DNA, backbone and methylation of C not given here; further chemistry not fully specified) | competed with Biotin NF-κB for binding to RelA/p65 | induced the VHL E3-PROTAC-p65 ternary complex formation | – | – | – |
| dNF-κB #4 (TGGGGACTTTCCAGTTTCTGGAAAGTCCCCA; VHL ligand conjugate via C4 linker, further chemistry not given here) | – | recruited the binding between the VHL E3 ubiquitin ligase and p65 in vitro | lowest p65 signal | lead to the ubiquitination of p65 in cells | – |
| dNF-κB #7 (TGGGGACTTTCCAGTTTCTGGAAAGTCCCCA; VHL ligand conjugate via C7 linker, further chemistry not given here) | – | recruited the binding between the VHL E3 ubiquitin ligase and p65 in vitro | lowest p65 signal | lead to the ubiquitination of p65 in cells | – |
| dNF-κB #15 (TGGGGACTTTCCAGTTTCTGGAAAGTCCCCA; decoy; VHL ligand conjugate via PEG2 linker, further chemistry not given here) | – | recruited the binding between the VHL E3 ubiquitin ligase and p65 in vitro | lowest p65 signal; also recorded: best degradation efficiency | lead to the ubiquitination of p65 in cells | tumorigenesis ability (colony formation) [1]: inhibited; degradation of endogenous p65 under proteasome inhibitor MG132 [7]: blocked the degradation of endogenous p65; proliferation of HeLa cells (cell number) [8]: repressed the proliferation of HeLa cells |
| dNF-κB #18 (TGGGGACTTTCCAGTTTCTGGAAAGTCCCCA; decoy; VHL ligand conjugate via PEG5 linker, further chemistry not given here) | – | recruited the binding between the VHL E3 ubiquitin ligase and p65 in vitro | lowest p65 signal | lead to the ubiquitination of p65 in cells | – |
